Source: ChEMBL document CHEMBL1909046, “DrugMatrix in vitro pharmacology data”

What was measured:
[1] = biological target: Sodium-dependent noradrenaline transporter (Homo sapiens, UniProt P23975); experiment: DRUGMATRIX: Norepinephrine Transporter radioligand binding (ligand: [125I] RTI-55); assay type: cell membranes, MDCK, Membrane; settings: Not Active = under 50% inhibition at 10 µM
B2 bradykinin receptor = biological target: T1, B2 bradykinin receptor (Homo sapiens, UniProt P30411); assay type: cell membranes, Membrane; settings: chem-1; further: in other assays of this panel Not Active means under 50% inhibition at 10 µM
T1 sequence (P30411 whole entry): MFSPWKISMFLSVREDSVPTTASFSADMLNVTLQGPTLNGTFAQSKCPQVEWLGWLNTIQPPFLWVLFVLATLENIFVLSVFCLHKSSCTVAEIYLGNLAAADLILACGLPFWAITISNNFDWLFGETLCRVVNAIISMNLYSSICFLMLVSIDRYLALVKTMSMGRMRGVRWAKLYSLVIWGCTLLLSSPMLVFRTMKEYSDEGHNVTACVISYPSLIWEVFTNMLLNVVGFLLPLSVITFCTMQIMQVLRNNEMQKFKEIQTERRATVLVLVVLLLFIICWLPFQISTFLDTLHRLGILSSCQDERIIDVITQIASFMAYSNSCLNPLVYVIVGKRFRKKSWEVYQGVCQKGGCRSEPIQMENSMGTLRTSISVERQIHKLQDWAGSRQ

[2] = DRUGMATRIX: GABAA, Muscimol, Central radioligand binding (ligand: [3H] Muscimol); assay type: cell membranes, Rattus norvegicus, Wistar, Brain, Membrane; settings: Not Active = under 50% inhibition at 10 µM
[3] = biological target: T2, Muscarinic acetylcholine receptor M2 (Homo sapiens, UniProt P08172); assay type: cell membranes, CHO-K1, Membrane; settings: cho-k1; further: in other assays of this panel Not Active means under 50% inhibition at 10 µM
T2 sequence (P08172 whole entry): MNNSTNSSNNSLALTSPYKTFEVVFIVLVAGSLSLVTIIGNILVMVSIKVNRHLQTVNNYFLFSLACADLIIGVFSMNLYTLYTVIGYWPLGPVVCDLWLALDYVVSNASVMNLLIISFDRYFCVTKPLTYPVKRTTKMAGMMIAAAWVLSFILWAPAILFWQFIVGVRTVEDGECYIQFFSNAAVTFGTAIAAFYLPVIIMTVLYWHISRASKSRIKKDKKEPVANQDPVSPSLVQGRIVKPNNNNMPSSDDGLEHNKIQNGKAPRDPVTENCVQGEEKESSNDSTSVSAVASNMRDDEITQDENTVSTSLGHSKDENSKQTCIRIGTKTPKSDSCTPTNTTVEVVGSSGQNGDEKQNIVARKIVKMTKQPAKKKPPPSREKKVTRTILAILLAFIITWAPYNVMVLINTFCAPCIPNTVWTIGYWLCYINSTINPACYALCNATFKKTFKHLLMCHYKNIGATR

[4] = biological target: T3, Muscarinic acetylcholine receptor M5 (Homo sapiens, UniProt P08912); assay type: cell membranes, CHO-K1, Membrane; settings: cho-k1; further: in other assays of this panel Not Active means under 50% inhibition at 10 µM
T3 sequence (P08912 whole entry): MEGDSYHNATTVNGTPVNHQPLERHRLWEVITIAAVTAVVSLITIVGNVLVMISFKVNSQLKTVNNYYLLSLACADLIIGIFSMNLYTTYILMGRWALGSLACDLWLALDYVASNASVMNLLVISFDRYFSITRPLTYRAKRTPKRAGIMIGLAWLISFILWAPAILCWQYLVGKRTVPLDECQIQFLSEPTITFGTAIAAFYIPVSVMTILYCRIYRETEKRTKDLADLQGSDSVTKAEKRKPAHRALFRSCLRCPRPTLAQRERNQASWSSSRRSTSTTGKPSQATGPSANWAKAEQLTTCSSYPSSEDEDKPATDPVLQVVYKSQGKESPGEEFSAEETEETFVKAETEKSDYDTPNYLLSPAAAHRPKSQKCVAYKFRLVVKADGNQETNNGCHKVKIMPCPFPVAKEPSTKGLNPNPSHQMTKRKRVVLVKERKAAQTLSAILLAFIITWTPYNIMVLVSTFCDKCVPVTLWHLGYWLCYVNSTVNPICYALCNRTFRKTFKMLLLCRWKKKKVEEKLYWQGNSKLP

[5] = biological target: T4, Neuropeptide Y receptor type 1 (Homo sapiens, UniProt P25929); assay type: cell membranes, Membrane; settings: sk-n-mc; further: in other assays of this panel Not Active means under 50% inhibition at 10 µM
T4 sequence (P25929 whole entry): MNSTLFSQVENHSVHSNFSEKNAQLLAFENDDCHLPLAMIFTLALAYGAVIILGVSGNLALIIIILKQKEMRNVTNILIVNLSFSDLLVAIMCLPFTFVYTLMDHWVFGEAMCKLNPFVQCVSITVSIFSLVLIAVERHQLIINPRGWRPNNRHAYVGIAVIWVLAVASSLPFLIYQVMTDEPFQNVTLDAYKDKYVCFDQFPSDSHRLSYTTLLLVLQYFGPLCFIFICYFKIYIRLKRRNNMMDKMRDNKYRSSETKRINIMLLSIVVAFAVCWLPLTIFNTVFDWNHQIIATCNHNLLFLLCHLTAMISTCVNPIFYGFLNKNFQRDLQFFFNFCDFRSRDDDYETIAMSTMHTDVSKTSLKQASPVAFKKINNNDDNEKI

Nitric oxide synthase 1 = Nitric oxide synthase 1 (Rattus norvegicus, UniProt P29476); assay type: tissue-based, Cerebellum; further: in other assays of this panel Not Active means under 50% inhibition at 10 µM
Nitric oxide synthase 1, sequence (P29476 whole entry): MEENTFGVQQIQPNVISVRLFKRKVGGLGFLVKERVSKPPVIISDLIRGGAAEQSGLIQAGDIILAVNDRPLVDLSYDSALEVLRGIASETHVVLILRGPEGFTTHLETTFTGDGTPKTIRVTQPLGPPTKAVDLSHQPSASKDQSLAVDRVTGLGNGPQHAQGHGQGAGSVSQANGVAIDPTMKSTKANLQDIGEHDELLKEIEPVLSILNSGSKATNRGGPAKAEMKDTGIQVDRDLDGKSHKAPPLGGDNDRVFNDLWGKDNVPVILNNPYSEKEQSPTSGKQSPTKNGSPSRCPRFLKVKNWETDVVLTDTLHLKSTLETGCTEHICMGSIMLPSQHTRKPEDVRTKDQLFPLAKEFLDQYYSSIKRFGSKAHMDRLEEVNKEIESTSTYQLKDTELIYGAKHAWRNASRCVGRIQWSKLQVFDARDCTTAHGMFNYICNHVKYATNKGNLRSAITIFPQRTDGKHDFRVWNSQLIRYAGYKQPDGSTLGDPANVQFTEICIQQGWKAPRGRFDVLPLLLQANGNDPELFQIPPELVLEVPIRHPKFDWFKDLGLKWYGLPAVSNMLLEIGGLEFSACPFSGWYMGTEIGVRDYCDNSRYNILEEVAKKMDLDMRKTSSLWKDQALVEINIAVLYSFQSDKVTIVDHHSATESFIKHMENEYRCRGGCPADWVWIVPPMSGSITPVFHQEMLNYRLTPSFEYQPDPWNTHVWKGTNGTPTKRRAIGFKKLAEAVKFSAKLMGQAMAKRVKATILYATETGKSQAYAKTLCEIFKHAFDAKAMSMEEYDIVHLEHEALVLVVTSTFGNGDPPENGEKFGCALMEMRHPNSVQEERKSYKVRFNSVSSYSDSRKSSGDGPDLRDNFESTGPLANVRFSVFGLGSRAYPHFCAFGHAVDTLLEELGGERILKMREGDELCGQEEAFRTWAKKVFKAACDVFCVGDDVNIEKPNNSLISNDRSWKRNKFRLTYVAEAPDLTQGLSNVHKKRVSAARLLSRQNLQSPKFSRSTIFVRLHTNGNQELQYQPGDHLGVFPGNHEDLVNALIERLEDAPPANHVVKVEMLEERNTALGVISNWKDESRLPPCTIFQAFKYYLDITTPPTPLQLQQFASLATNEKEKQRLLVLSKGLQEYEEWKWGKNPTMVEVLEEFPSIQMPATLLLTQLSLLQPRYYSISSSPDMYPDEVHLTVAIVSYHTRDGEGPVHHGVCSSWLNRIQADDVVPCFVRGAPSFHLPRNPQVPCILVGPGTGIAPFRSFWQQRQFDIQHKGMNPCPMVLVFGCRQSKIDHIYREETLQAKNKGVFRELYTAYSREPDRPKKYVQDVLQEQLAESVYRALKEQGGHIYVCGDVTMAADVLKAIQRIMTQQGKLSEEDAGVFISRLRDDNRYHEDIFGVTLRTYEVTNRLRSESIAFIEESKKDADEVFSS

[6] = biological target: Delta-type opioid receptor (Homo sapiens, UniProt P41143); assay type: cell membranes, HEK293, Membrane; settings: hek293; further: in other assays of this panel Not Active means under 50% inhibition at 10 µM
Delta-type opioid receptor, sequence (P41143 whole entry): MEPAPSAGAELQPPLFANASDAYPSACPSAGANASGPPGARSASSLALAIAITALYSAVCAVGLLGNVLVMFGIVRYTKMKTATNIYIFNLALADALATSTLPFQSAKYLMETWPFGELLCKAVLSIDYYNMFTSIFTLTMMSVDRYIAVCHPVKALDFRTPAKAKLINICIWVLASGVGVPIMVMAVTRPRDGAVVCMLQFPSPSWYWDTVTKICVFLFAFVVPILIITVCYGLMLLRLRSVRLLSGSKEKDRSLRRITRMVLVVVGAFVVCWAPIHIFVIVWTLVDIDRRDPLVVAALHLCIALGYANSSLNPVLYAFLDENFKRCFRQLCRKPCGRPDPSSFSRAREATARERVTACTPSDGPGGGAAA

[7] = biological target: Mitogen-activated protein kinase 3 (Homo sapiens, UniProt P27361); experiment: DRUGMATRIX: Protein Serine/Threonine Kinase, ERK1 enzyme inhibition (substrate: Myelin Basic Protein); set-up: species or system Escherichia coli; settings: Not Active = under 50% inhibition at 10 µM
Mitogen-activated protein kinase 3, sequence (P27361 whole entry): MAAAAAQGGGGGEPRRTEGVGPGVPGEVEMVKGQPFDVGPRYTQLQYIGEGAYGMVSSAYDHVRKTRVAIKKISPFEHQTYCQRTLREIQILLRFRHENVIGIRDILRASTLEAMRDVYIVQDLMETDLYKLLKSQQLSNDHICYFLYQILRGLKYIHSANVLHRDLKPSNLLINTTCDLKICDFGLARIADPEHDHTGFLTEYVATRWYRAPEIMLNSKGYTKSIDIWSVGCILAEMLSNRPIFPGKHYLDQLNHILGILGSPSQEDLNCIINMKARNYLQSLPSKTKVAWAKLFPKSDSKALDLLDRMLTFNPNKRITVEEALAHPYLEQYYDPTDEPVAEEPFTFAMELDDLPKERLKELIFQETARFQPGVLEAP

Adenosine receptor A3 = biological target: T5, Adenosine receptor A3 (Homo sapiens, UniProt P0DMS8); assay type: cell membranes, CHO-K1, Membrane
T5 sequence (P0DMS8 whole entry): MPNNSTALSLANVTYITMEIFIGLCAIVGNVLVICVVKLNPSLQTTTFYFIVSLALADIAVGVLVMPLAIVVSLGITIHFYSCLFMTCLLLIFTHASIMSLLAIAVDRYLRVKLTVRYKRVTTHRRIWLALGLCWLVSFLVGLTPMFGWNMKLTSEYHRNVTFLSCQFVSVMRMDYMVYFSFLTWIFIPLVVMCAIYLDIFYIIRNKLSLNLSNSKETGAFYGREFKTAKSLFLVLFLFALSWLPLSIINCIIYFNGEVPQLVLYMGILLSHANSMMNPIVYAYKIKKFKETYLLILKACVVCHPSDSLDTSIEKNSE

Cytochrome P450 2D6 = Cytochrome P450 2D6 (Homo sapiens, UniProt P10635); settings: bti-tn-5b1-4; further: in other assays of this panel Not Active means under 50% inhibition at 10 µM
Cytochrome P450 2D6, sequence (P10635 whole entry): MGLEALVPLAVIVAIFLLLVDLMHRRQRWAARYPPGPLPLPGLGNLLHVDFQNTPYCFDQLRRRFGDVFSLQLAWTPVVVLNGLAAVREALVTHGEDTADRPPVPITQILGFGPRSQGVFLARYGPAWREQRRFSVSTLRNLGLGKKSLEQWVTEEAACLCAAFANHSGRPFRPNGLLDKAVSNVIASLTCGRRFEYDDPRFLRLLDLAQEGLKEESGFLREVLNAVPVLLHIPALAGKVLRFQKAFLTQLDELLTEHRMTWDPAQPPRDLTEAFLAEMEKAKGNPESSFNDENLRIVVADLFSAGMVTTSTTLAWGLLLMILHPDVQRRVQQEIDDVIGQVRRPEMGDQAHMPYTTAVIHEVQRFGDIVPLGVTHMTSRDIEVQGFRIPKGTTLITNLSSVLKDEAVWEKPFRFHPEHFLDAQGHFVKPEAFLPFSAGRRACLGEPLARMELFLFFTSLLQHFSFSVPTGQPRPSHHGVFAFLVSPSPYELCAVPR

Sodium-dependent noradrenaline transporter, sequence (P23975 whole entry): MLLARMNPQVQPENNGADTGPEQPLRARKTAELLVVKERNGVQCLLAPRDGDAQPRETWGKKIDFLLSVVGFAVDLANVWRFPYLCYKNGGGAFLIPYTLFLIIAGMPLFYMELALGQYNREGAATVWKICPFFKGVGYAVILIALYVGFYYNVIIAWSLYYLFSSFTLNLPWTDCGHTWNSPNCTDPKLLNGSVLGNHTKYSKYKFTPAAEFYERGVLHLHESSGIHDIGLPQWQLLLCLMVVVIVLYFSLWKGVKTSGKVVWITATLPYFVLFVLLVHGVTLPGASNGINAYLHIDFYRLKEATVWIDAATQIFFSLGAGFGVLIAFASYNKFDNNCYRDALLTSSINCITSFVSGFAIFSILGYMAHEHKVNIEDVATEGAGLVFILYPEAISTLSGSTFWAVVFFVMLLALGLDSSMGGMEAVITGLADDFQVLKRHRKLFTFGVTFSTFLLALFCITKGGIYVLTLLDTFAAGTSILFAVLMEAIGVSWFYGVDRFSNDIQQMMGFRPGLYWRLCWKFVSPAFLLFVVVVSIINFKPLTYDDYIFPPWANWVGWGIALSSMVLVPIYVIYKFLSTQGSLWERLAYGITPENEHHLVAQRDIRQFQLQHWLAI

Compound | IC50 ([1]; mdck) | IC50 (B2 bradykinin receptor) | IC50 [2] | Ki [2] | IC50 [3] | IC50 [4] | IC50 [5] | IC50 (Nitric oxide synthase 1) | IC50 [6] | IC50 [7] | IC50 (Adenosine receptor A3; cho-k1) | IC50 (Cytochrome P450 2D6) | Ki (Cytochrome P450 2D6) | IC50 ([1]; read-out: IC50) | Ki ([1]; read-out: Ki) | IC50 (Adenosine receptor A3; read-out: IC50) | Ki (Adenosine receptor A3; read-out: Ki)
OCc1ccccc1 [BENZYL ALCOHOL] | Not Active | Not Active | Not Active | Not Active | Not Active | Not Active | Not Active | Not Active | Not Active | Not Active | Not Active | Not Active | Not Active |  |  |  | 
CC(C)(Oc1ccc(CCNC(=O)c2ccc(Cl)cc2)cc1)C(=O)O [BEZAFIBRATE] | Not Active | Not Active | Not Active | Not Active | Not Active | Not Active | Not Active | Not Active | Not Active | Not Active | Not Active | Not Active | Not Active |  |  |  | 
CCCC[C@@H](CC)COC(=O)c1ccccc1C(=O)OC[C@@H](CC)CCCC [BIS(2-ETHYLHEXYL)PHTHALATE] | Not Active | Not Active | Not Active | Not Active | Not Active | Not Active | Not Active | Not Active | Not Active | Not Active | Not Active | Not Active | Not Active |  |  |  | 
Oc1c(Cl)cc(Cl)cc1Sc1cc(Cl)cc(Cl)c1O [BITHIONOL] |  | Not Active | Not Active | Not Active | Not Active | Not Active | Not Active | Not Active | Not Active | Not Active |  | Not Active | Not Active | 1240 nM | 1230 nM | 829 nM | 468 nM
Brc1ccccc1 [BROMOBENZENE] | Not Active | Not Active | Not Active | Not Active | Not Active | Not Active | Not Active | Not Active | Not Active | Not Active | Not Active | Not Active | Not Active |  |  |  | 
CC[C@@]1(O)C(=O)OCc2c1cc1n(c2=O)Cc2cc3ccccc3nc2-1 [CAMPTOTHECIN] | Not Active | Not Active | Not Active | Not Active | Not Active | Not Active | Not Active | Not Active | Not Active | Not Active | Not Active | Not Active | Not Active |  |  |  | 
CC(=O)O[C@]1(C(C)=O)CC[C@H]2[C@@H]3C=C(Cl)C4=CC(=O)CC[C@]4(C)[C@H]3CC[C@@]21C [CHLORMADINONE ACETATE] | Not Active | Not Active | Not Active | Not Active | Not Active | Not Active | Not Active | Not Active | Not Active | Not Active | Not Active | Not Active | Not Active |  |  |  | 
O=C1CCc2cc(OCCCCc3nnnn3C3CCCCC3)ccc2N1 [CILOSTAZOL] | Not Active | Not Active | Not Active | Not Active | Not Active | Not Active | Not Active | Not Active | Not Active | Not Active | Not Active | Not Active | Not Active |  |  |  | 
COC(=O)[C@H](c1ccccc1Cl)N1CCc2sccc2C1 [CLOPIDOGREL] | Not Active | Not Active | Not Active | Not Active | Not Active | Not Active | Not Active | Not Active | Not Active | Not Active | Not Active | Not Active | Not Active |  |  |  | 
C[C@]12CCC(=O)C=C1CC[C@@H]1[C@@H]2C(=O)C[C@@]2(C)[C@H]1CC[C@]2(O)C(=O)CO [CORTISONE] | Not Active | Not Active | Not Active | Not Active | Not Active | Not Active | Not Active | Not Active | Not Active | Not Active | Not Active | Not Active | Not Active |  |  |  | 
Cc1ccccc1N1CCN(CCc2nnc3n2CCCC3)CC1 [DAPIPRAZOLE] | Not Active | Not Active | Not Active | Not Active | Not Active | Not Active | Not Active | Not Active | Not Active | Not Active | Not Active | Not Active | Not Active |  |  |  | 
